Measurements taken from US20260356814A1, “INDOLINE DERIVATIVES AS SEROTONERGIC AGENTS USEFUL FOR THE TREATMENT OF DISORDERS RELATED THERETO” (MINDSET PHARMA INC., priority 2022, published 2026).
Entries after “also recorded” stand apart in the source; their conditions may differ.

How the values were obtained:
[1] = tested on: brain's default mode network; details: intravenously administered; cited from earlier work
5-HT2 receptor = details: daily administration; cited from earlier work
[2] = tested on: depression and anxiety associated with life-threatening disease; details: in a supportive setting; cited from earlier work
Plasma stability, human = assay type: in vitro ADME; details: 37° C.
Method: (§1) • a. […] The final concentration of organic solvents was 0.5%. The assay was performed in duplicated. • b.
(§2) All calculations were carried out using Microsoft Excel.

Plasma stability, mouse = assay type: in vitro ADME; details: 37° C.
Method: as §1, §2

human 5-HT1A receptor = target: T1, human 5-HT1A receptor (Homo sapiens, UniProt P08908); experiment: Human 5-HT1A: Functional FLIPR assay (agonist mode); assay type: cell-based; details: @10 μM (head); footnote: curve fitting with activation (%) @ 10 mM with RFU; RFU=Fmax−Fmin
T1 construct: expressed in transfected cells; host or cells: CHO (HTR1A&Ga15-CHO)
T1 sequence (P08908 1-422): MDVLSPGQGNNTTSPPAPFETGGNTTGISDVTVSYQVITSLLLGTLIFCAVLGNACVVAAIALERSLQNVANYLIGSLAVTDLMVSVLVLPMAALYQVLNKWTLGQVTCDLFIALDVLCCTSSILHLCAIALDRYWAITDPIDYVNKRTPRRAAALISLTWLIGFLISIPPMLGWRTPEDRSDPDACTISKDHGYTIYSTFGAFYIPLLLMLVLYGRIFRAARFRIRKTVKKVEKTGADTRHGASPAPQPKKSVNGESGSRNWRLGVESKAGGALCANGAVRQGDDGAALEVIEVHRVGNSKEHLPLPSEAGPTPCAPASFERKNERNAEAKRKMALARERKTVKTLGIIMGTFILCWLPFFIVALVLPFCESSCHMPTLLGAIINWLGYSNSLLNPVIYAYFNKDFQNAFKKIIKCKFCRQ
Method: The potential excitatory effects of compounds targeting on 5-hydroxytryptamine receptor 1A (5-HT1A) under agonist mode was assessed.
HTR1A&Ga15-CHO cells were cultured in DMEM/F12 medium containing 10% dialyzed FBS, 1x penicillin-streptomycin and 600 μg/mL Hygromycin B. The cells were passaged about three times a week, maintained between ~30% to ~90% confluence.
• 1. The cell culture medium (DMEM/F12 medium containing 10% dialyzed FBS, 1x penicillin-streptomycin and 600 μg/mL Hygromycin B), TrypLE™ Express and DPBS was warmed to R.T. in advance. • 2. The cell culture medium was removed from flask. Washed cells with DPBS. • 3. 1 mL TrypLE™ Express was added to the flask, mixed well by gentle shaking and cells were incubated at 37° C. for a few minutes. • 4. The cells were checked for morphological change under microscope, the digestion was stopped by adding 2 mL cell culture medium to the flask when most of cells turned to round. • 5. The cell suspension was transferred into a 15 mL centrifuge tube, and then centrifuged at 1,200 rpm for 5 minutes. • 6. The supernatant was removed. The cell pellet were resuspended with 2 mL cell culture medium. • 7. The cell density were counted using cell counter. Only cells with >85% viability were used for the assay. • 8. Cells were diluted to 4×10^5/mL with cell culture medium. • 9. 30 μL/well cell suspensions were added into a 384-well cell plate (The cell density was 12,000 cells/well). • 10. The cell plate was incubated overnight at 37° C., 5% (v/v) CO2.
• 1. On the day of experiments, culture medium was removed from the cell plate. • 2. 10 μL of assay buffer (20 mM HEPES, in 1×HBSS, pH 7.4) was added to each well of the cell plate. • 3. 2× dye solution was prepared following the manufacture's instruction of the FLIPR® Calcium 6 assay kit: • i. The dye was diluted with assay buffer. • ii. probenecid was added to the final concentration of 5 mM. • iii. Vortexed vigorously for 1-2 minutes, adjust pH to 7.4. • 4. 10 μL of 2×dye solution was added to each well of the cell plate. • 5. The cell plate was placed on plate shaker, followed by shaking at 600 rpm for 2 minutes. • 6. The plate was incubated at 37° C. for 2 hours followed by an additional 15-minute incubation at 25° C. 3.4 Prepare 3×compounds. • 1. Serotonin was prepared to the concentration of 10 mM with DMSO, 3-folds serial dilutions were performed with DMSO. • 2. Prepare the test compound to the concentration of 10 mM with DMSO, preform 3-folds serial dilutions with DMSO. • 3. The compounds were added to a 384-well compound source plate. • 4. 90 nL/well of serial diluted compounds were transferred from source plate to a 384-well compound plate by using an Echo. • 5. 30 μL/well of assay buffer was added to the compound plate. • 6. The plate was mixed on-plate shaker for 2 minutes. 3.5 FLIPR assay • 1. After the cells incubate with dye solution, the cell plate, compound plate containing 3×compounds and FLIPR tips were placed into FLIPR. • 2. 10 μL of 3×compounds were transferred from the compound plate to the cell plate by FLIPR. • 3. The plate was read for 160 sec with 1 sec interval to obtain the data of agonist mode.
(§3) • 1. The normalized fluorescence reading (RFU) was calculated as shown below, wherein Fmax and Fmin stand for maximum and minimum of calcium signal during defined time window:
RFU=Fmax−Fmin • 2. EC50 was calculated by fitting RFU against log of compound concentrations with Hill equation using XLfit.

Plasma stability, rat = assay type: in vitro ADME; details: 37° C.
Method: as §1, §2

human 5-HT2A receptor = human 5-HT2A receptor (Homo sapiens, UniProt P28223); experiment: Human 5-HT2A: Radioligand binding assay ([3H]-ketanserin); details: [3H]-ketanserin displacement, 27° C., 90 min, pH 7.4; read-out: h5-HT2A, IC50
Method: Exemplary compounds of Formula I were evaluated functionally using FLIPR assay for their effect on h5-HT2A receptor under agonist mode. The objective of this study was to evaluate the binding properties of exemplary compounds of Formula I on 5-hydroxytryptamine receptor 2A (5-HT2A). • Human 5-HT2A: Radioligand binding assay:
• i. The assay buffer was prepared following the table below.
• Adjust pH to 7.4 followed by […] sterile filtration • ii. 8 doses of reference and test compounds starting from 10 mM stock solution as required was prepared by 5-fold serial dilutions with 100% (v/v) DMSO. • iii. UniFilter-96 GF/B plate was pretreated: • a. 50 μl/well of 0.5% (v/v) PEI was added to UniFilter-96 […] plates. The plates were sealed and incubated at 4° C. for 3 hrs. • b. After incubation, the plates were washed 3 times with ice-cold wash buffer (50 mM Tris, pH7.4). • iv. The assay plate was prepared: • a. Cell membrane was diluted with assay buffer and 330 μl/well was added to 96 round deep well plates to reach a concentration of 20 μg/well. • b. 8 concentrations of reference or test compounds were prepared and 110 μl/well was added to 96 round deep well plates. • c. [3H]-ketanserin was diluted with assay buffer to 5 nM (5X final concentration) and 110 μl/well was added to 96 round deep well plates. • v. The plate was centrifuged at 1000 rpm for 30 secs and then agitated at 600 rpm, R.T. for 5 min. • vi. The plates were sealed and the plate incubated at 27° C. for 90 min. • vii. The incubation was stopped by vacuum filtration onto GF/B filter plates followed by 4 times washing with ice-cold wash buffer (50 mM Tris, pH7.4). • viii. The plates were dried at 37° C. for 45 min. • ix. The filter plates were sealed and 40 μl/well of scintillation cocktail was added. • x. The plate was read by using a Microbeta2 microplate counter.
• 1. For reference and test compounds, the results were expressed as % Inhibition, using the normalization equation: N=100−100×(U−C2)/(C1-C2), where U is the unknown value, C1 is the average of high controls, and C2 is the average of low controls. • 2. The IC50 was determined by fitting percentage of inhibition as a function of compound concentrations with Hill equation using XLfit.

[3] = target: T2, human 5-HT2A (h5-HT2A) receptor (Homo sapiens, UniProt P28223); experiment: FLIPR assay: human 5-HT2A (agonist mode); assay type: cell-based; details: @10 μM (head); footnote: curve fitting with activation (%) @ 10 mM with RFU; RFU=Fmax−Fmin
T2 construct: expressed in transfected cells; host or cells: HEK293 (HTR2A&Ga15-HEK293, tetracycline-induced)
Method: Assessment of the effect of exemplary compounds of Formula I targeting on human 5-HT2A (h5-HT2A) receptor under agonist mode.
HTR2A&Ga15-HEK293 cells were cultured in DMEM medium containing 10% dialyzed FBS and 1x penicillin-streptomycin, 100 μg/mL Hygromycin B and 300 μg/mL G418. The cells were passaged about three times a week, maintained between ~30% to ~90% confluence.
• 1. The cell culture medium (DMEM medium containing 10% dialyzed FBS and 1× penicillin-streptomycin, 100 μg/mL Hygromycin B and 300 μg/mL G418), TrypLE™ Express and DPBS to R.T. was warmed in advance. • 2. For induction, 1 μg/ml tetracycline (final concentration) was added to cell culture medium and incubated for 48 hours prior to seeding cells into plate at 37° C., 5% (v/v) CO2. The cell culture medium was removed from flask. Cells were washed with DPBS. • 3. 2 mL TrypLE™ Express was added to the flask, mixed well by gentle shaking and cells were incubated at 37° C. for a few minutes. • The cells were checked for morphological change under microscope, the digestion was stopped by adding 4 mL cell culture medium to the flask when most of cells turned to round. • 5. The cell suspension was transferred into a 15 mL centrifuge tube, and then centrifuged at 1,200 rpm for 5 minutes. • 6. The supernatant was removed. The cell pellet was resuspended with 2 mL cell culture medium. • 7. The cell density was counted using cell counter. Only cells with >85% viability were used for the assay. • 8. Cells were diluted to 6.67×10^5/mL with cell culture medium. • 9. 30 μL/well cell suspensions added into a 384-well cell plate (The cell density was 20,000 cells/well). • 10. The cell plate was incubated overnight at 37° C., 5% (v/v) CO2. 2.3 Cell handling • 1. On the day of experiments, culture medium was removed from the cell plate. • 2. 10 μL of assay buffer (20 mM HEPES, in 1×HBSS, pH 7.4) was added to each well of the cell plate. • 3. 2×dye solution was prepared following the manual of the FLIPR® Calcium 6 Assay Kit: • i. The dye was diluted with assay buffer. • ii. Probenecid was added to the final concentration of 5 mM. • iii. Vortexed vigorously for 1-2 minutes. • 4. 10 μL of 2× dye solution was added to each well of the cell plate • 5. The cell plate was placed on plate shaker, followed by shaking at 600 rpm for 2 minutes. • 6. The plate was incubated at 37° C. for 2 hours followed by an additional 15-minute incubation at 25° C. 2.4 Prepare 3×compound • 1. Serotonin HCl was prepared to the concentration of 10 mM with DMSO. • 2. The test compounds were prepared to the concentration of 10 mM with DMSO. • 3. The compounds were added to a 384-well compound source plate. • 4. 3-folds serial dilutions were performed with DMSO. • 5. 90 nL/well of serial diluted compounds was transferred from source plate to a 384-well compound plate by using an Echo. • 6. 30 μL/well of assay buffer (20 mM HEPES in 1x HBSS, pH 7.4) was added to the compound plate. • 7. The plate was mixed on-plate shaker for 2 minutes.
• 1. After the cells were incubated with dye solution, the cell plate, compound plate containing 3×compounds and FLIPR tips were placed into FLIPR. • 2. 10 μL of 3×compounds transferred from the compound plate to the cell plate by FLIPR. • 3. The plate was read for 160 sec with 1 sec interval and the data of agonist mode was obtained.
as §3
RFU=Fmax−Fmin • 2. EC50 by fitting RFU against log of compound concentrations with Hill equation was calculated using XLfit.
The following procedure can also be followed: • 1. Cells are cultured in cell culture medium (DMEM containing 10% FBS, 1× penicillin-streptomycin 300 μg/ml G418 and 100 μg/ml hygromycin B) at 37° C., 5% (v/V) CO2. • 2. One day before the assays, the cells are detached using TrypLE™ Express and cells are counted using cell counter.

[4] = 30 min, read-out: Remaining Percentage (%), 30 min
[5] = 60 min, read-out: Remaining Percentage (%), 60 min
[6] = >255.85 if remaining at 60 min greater than 85%

T2 sequence (P28223 whole entry): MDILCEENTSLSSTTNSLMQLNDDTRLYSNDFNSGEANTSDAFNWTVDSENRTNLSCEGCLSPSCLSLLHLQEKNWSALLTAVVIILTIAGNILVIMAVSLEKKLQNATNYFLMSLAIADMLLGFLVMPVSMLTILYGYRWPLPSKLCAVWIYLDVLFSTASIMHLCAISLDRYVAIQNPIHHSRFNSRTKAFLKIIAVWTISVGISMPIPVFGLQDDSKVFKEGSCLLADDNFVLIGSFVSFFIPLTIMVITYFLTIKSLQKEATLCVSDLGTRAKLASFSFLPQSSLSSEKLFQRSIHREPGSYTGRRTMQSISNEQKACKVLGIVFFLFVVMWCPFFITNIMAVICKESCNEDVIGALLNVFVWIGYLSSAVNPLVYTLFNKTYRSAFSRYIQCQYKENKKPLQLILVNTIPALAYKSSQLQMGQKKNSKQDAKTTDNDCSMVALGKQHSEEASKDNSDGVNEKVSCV
Chain of human 5-HT2A receptor (P28223 whole entry): as above

CCN(CC)C(=O)[C@@H]1C=C2c3cccc4[nH]cc(c34)C[C@H]2N(C)C1 [LSD]
oscillatory power in areas of the brain's default mode network [1]: decreases in oscillatory power in areas of the brain's default mode network
5-HT2 receptor density in rat brain (5-HT2 receptor): selectively decreased 5-HT2 receptor density in the rat brain; also recorded: reduce 5-HT2 receptor density in rat brain
anti-depressant and anxiolytic effects [2]: significant and sustained anti-depressant and anxiolytic effects

CC(C)[N+](C)(CCOC(=O)C1c2ccccc2Oc2ccccc21)C(C)C [Propantheline, reference compound]
Remaining Percentage (%), 0 min (Plasma stability, human; 0 min): 100.00%
remaining at 0.5 h (Plasma stability, human; [4]): 29%
remaining at 1 h (Plasma stability, human; [5]): 2.58%
half-life (Plasma stability, human; [6]): 11.4 min
Remaining Percentage (%), 0 min (Plasma stability, mouse; 0 min): 100.00%
remaining at 0.5 h (Plasma stability, mouse; [4]): 61.6%
half-life (Plasma stability, mouse; [6]): 37.1 min

CN(C)CCc1c[nH]c2cccc(O)c12 [Psilocin, 4-hydroxy-N,N-dimethyltryptamine, reference compound]
RFU@10 μM (human 5-HT1A receptor): 140 RFU

CC[C@H](C)C(=O)O[C@H]1C[C@@H](C)C=C2C=C[C@H](C)[C@H](CC[C@@H]3C[C@@H](O)CC(=O)O3)[C@H]21 [Lovastatin, reference compound]
Remaining Percentage (%), 0 min (Plasma stability, rat; 0 min): 100.00%
remaining at 0.5 h (Plasma stability, rat; [4]): 0.61%
remaining at 1 h (Plasma stability, rat; [5]): 0.33%

COc1ccc2c(c1)N(C[C@@H]1CCCN1C)CC2 [(S)-I-58, (S)-6-Methoxy-1-((1-methylpyrrolidin-2-yl)methyl) indoline]
IC50 (human 5-HT2A receptor): > 30 µM
RFU@10 μM [3]: 203 RFU
